According to patent US11319305B2, “Pyrimidine sulfamide derivative and preparation method and medical application thereof” (SHIJIAZHUANG SAGACITY NEW DRUG DEVELOPMENT CO., LTD., priority 2017, dated 2022):

Tests used:
Format in all cases: in vitro ADME
[1] = system: human liver microsomal cytochrome P450 isozyme (CYP1A2, CYP2C9, CYP2C19, CYP2D6 and CYP3A4); experiment: Human liver microsomal cytochrome P450 isozyme inhibition assay, summary over the main isozymes
Protocol: (§1) Experimental Embodiment 4: Human Liver Microsomal Cytochrome P450 Isozyme Inhibition Assay The purpose of the assay was to evaluate the inhibitory activity of the samples against human liver microsomal cytochrome P450 isozyme (CYP1A2, CYP2C9, CYP2C19, CYP2D6 and CYP3A4) using the 5-in-1 probe substrate of the CYP isozyme. Mixed human liver microsomes (HLM) were purchased from Corning Inc. (Steuben, N.Y., USA) and stored below −80° C. before use. The test compound working solution which has been diluted into serial concentrations was added to an incubation system containing human liver microsomes, probe substrates and circulating system cofactors, and a control containing solvent without the test compound was used as the enzyme activity control (100%). The concentration of the metabolite produced by the probe substrate in the sample was determined using a liquid chromatography-tandem mass spectrometry (LC-MS/MS) method. Nonlinear regression analysis was performed on the average percent activity versus concentration of subjects using SigmaPlot (V.11). The IC50 value was calculated by a three-parameter or four-parameter inverse-logarithmic equation.

CYP2C9 = biological target: T1, CYP2C9 (Homo sapiens, UniProt P11712); experiment: Human liver microsomal cytochrome P450 isozyme inhibition assay, CYP2C9; details: human liver microsomes
T1 construct: Mixed human liver microsomes (HLM) were purchased from Corning Inc; tissue Corning Inc; host or cells: pooled human liver microsomes
Protocol: as §1

CYP2D6 = biological target: T2, CYP2D6 (Homo sapiens, UniProt P10635); experiment: Human liver microsomal cytochrome P450 isozyme inhibition assay, CYP2D6; details: human liver microsomes
T2 construct: Mixed human liver microsomes (HLM) were purchased from Corning Inc; tissue Corning Inc; host or cells: pooled human liver microsomes
Protocol: as §1

CYP1A2 = biological target: T3, CYP1A2 (Homo sapiens, UniProt P05177); experiment: Human liver microsomal cytochrome P450 isozyme inhibition assay, CYP1A2; details: human liver microsomes
T3 construct: Mixed human liver microsomes (HLM) were purchased from Corning Inc; tissue Corning Inc; host or cells: pooled human liver microsomes
T3 sequence (P05177 1-516): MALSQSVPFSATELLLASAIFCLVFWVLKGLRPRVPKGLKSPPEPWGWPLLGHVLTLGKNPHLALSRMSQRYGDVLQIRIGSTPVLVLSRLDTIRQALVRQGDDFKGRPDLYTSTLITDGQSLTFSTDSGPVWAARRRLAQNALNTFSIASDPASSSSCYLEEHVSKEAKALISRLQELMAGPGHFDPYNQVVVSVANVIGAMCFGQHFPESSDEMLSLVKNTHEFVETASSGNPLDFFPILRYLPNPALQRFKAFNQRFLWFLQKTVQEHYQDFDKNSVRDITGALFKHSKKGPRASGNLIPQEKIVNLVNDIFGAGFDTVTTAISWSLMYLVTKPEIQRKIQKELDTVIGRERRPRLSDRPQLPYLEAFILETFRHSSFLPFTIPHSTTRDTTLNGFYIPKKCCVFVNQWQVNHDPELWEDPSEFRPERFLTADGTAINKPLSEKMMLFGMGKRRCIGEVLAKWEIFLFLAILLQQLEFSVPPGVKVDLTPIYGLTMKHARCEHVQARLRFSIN
Protocol: as §1

CYP3A4 = biological target: T4, CYP3A4 (Homo sapiens, UniProt P08684); experiment: Human liver microsomal cytochrome P450 isozyme inhibition assay, CYP3A4; details: human liver microsomes
T4 construct: Mixed human liver microsomes (HLM) were purchased from Corning Inc; tissue Corning Inc; host or cells: pooled human liver microsomes
Protocol: as §1

[2] = biological target: T5, bile salt transport pump (BSEP) (Homo sapiens, UniProt O95342); experiment: Inhibition test on bile salt transfer pump (BSEP), taurocholic acid uptake in BSEP-Hi5-VT vesicles
T5 construct: purchased Solvo Biotechnology SB-BSEP-Hi5-VT; host or cells: Hi5 insect cells (read from the product name; own knowledge)
Protocol: Prepared with buffer A, 8.16 mM ATP and 4.08 μM taurocholic acid were contained in 12 mL buffer A.
Prepared with buffer A, 8.16 mM AMP, 4.08 μM taurocholic acid 12 mL buffer A were contained in buffer A.
A solution containing BSEP-Hi5-VT 5 μg/μL was prepared with buffer A.
The compound was diluted to 100 mM with DMSO; then serially diluted 3-fold for an 11-point dilution; the minimum concentration was 0.169 μM.
Positive reference Glyburide was diluted to 20 mM with DMSO; then serially diluted 2-fold for an 11-point dilution; the minimum concentration was 19.5
0.3 μL of a solution of the compound in DMSO or a diluted DMSO solution were transferred into corresponding wells of the compound plate using ECHO, respectively.
14.7 μL of ATP buffer was added to the compound and the corresponding wells of zero percent effect (ZPE), respectively.
14.7 μL of AMP buffer was added to the corresponding wells of 100% effect (HPE), respectively.
The plate was shaked for 10 minutes at 25° C.
15 μL of BSEP-H15-VT Vesicle solution was added to all wells, respectively, and the plate was shaked for another 40 minutes at 25° C.
6.5 μL 0.5 M ethylenediaminetetraacetic acid (EDTA) solution was added to all wells immediately, followed by addition of 65 μL of buffer B, and the whole reaction was completed.
7.95 μL of liquid was transferred to the filter plate from the compound plate at the end of the reaction using an instrument.
After placing the liquid receiving plate under the filter plate, the liquid was removed using a centrifuge and the receiving plate liquid was discarded.
9.90 μL of buffer B was added to the filter plate. After placing the liquid receiving plate under the filter plate, the liquid was removed using a centrifuge, and the receiving plate liquid was discarded, and filter plate was washed for three times in total.
The filter plate was dried overnight.
On the next day, 80 μL of methanol/water (80/20, volume ratio) solution was added to the filter plate.
The plate was shaked for 15 minutes after the filter plate was attached to the membrane.
A new liquid receiving plate was placed under the filter plate, and the filter plate was centrifuged for 5 minutes, and all liquids in the filter plate were filtrated into the receiving plate.
15 μL of internal standard solution was added to each wells in the liquid receiving plate, and the plate was sealed with a membrane.
The content of taurocholic acid in the receiving plate was detected using LC/MS/MS.
Several concentrations were tested in each experiments. The data were analyzed using Prism to generate a concentration-response curve, and IC50 values of the compounds were calculated.

CYP2C19 = biological target: T6, CYP2C19 (Homo sapiens, UniProt P33261); experiment: Human liver microsomal cytochrome P450 isozyme inhibition assay, CYP2C19; details: human liver microsomes
T6 construct: Mixed human liver microsomes (HLM) were purchased from Corning Inc; tissue Corning Inc; host or cells: pooled human liver microsomes
Protocol: as §1

T5 sequence (O95342 whole entry): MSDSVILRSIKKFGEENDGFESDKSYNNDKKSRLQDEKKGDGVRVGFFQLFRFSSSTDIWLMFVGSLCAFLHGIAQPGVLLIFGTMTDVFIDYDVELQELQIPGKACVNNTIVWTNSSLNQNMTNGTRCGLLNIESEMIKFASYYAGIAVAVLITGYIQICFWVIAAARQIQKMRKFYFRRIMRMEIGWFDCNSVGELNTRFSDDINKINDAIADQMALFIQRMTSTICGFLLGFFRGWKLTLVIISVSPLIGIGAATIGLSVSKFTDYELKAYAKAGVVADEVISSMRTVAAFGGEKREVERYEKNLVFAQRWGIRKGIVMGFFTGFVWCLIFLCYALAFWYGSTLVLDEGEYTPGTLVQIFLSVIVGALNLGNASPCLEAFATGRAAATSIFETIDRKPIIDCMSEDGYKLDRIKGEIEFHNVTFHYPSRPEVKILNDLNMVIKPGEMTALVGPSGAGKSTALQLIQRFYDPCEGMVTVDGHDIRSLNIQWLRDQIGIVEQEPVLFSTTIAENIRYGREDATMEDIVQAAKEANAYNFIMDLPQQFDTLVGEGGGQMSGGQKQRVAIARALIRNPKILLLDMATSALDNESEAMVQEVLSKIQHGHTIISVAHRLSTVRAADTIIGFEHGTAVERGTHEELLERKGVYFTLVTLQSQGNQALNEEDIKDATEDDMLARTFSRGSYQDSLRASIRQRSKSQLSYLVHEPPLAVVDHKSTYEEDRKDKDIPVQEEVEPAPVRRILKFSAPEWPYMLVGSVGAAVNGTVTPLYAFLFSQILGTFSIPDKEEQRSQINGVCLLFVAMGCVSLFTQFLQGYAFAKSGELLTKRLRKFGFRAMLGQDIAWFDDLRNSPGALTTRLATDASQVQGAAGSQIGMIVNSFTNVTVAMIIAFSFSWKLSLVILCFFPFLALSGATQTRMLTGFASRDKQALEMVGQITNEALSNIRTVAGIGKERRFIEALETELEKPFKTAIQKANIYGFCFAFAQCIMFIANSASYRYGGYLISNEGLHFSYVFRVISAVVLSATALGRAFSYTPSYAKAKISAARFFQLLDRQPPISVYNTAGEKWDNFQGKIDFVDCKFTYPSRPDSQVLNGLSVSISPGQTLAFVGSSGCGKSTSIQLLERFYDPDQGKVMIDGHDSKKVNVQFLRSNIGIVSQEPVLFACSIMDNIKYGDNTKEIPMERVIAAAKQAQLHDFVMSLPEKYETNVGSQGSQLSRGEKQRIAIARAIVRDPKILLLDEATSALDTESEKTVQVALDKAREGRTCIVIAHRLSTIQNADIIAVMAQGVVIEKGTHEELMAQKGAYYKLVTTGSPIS
T1 sequence (P11712 whole entry): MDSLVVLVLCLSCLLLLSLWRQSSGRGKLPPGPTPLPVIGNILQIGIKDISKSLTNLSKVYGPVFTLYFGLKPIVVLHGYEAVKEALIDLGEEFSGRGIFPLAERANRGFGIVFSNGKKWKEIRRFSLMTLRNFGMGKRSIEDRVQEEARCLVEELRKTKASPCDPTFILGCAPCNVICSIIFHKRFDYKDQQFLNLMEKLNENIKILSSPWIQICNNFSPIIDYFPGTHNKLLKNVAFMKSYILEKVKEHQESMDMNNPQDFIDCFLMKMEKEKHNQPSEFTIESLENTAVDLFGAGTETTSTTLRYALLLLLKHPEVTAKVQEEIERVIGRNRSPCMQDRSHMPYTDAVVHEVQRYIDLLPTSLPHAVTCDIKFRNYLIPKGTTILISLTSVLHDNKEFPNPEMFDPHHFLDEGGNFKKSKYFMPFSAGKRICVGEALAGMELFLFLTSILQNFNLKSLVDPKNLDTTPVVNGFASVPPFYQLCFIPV
T4 sequence (P08684 whole entry): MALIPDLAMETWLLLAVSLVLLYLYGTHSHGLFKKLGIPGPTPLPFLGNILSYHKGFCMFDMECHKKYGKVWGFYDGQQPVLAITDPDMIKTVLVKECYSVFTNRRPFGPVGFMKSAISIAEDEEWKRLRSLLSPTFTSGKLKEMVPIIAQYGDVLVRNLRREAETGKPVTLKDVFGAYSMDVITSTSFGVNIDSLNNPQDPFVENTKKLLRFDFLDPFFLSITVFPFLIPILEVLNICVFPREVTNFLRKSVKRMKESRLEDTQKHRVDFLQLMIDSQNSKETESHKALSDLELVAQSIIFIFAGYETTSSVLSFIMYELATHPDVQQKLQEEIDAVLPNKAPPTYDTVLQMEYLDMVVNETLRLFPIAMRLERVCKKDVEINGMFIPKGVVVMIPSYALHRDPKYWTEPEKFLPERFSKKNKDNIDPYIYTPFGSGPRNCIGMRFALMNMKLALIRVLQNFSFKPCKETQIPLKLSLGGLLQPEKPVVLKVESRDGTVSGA
T2 sequence (P10635 whole entry): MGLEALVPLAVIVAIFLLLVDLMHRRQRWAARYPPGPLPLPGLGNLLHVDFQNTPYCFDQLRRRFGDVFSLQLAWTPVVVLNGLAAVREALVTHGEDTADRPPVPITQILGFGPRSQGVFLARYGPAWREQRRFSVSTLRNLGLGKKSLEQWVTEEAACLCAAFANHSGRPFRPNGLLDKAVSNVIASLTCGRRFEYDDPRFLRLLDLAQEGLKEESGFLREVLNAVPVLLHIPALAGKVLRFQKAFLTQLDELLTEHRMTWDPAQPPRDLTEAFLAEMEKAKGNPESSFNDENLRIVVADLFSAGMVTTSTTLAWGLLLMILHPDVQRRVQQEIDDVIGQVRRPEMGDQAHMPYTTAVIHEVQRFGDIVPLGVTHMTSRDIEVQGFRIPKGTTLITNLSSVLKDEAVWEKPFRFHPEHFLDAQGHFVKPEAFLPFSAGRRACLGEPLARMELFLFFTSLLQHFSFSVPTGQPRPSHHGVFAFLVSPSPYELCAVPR
T6 sequence (P33261 whole entry): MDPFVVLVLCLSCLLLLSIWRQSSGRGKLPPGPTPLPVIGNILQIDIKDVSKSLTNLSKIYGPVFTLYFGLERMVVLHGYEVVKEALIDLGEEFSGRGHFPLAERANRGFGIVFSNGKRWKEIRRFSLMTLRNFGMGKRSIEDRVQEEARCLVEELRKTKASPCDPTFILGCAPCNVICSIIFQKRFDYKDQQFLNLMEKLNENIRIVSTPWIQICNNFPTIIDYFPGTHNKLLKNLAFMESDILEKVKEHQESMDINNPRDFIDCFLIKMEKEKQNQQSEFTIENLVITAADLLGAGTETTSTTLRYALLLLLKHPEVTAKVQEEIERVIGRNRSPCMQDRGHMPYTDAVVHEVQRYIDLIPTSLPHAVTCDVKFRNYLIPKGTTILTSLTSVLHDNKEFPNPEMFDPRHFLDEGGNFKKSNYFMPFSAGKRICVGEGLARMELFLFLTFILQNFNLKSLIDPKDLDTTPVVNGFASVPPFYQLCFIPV

inhibitory effects on five main isozymes of CYP (in words) [1]: very weak
IC50 (CYP2C9): > 50 µM
IC50 (CYP2D6): > 50 µM
IC50 (CYP1A2): 47 µM
IC50 (CYP3A4): 18 µM
IC50 (CYP2C19): > 50 µM
SMILES: COCCNS(=O)(=O)Nc1ncnc(OCCOc2ncc(Br)cn2)c1-c1ccc2c(c1)OCO2 [WX013]
inhibitory effect on the bile salt transport pump (BSEP) (in words) [2]: extremely weak
IC50 ([2]; substrate taurocholic acid, read-out: IC50, inhibitory effect on the bile salt transport pump (BSEP)): 43.8 µM
